Measured values published in the NIST ThermoML archive (doi:10.1016/j.jct.2005.12.005).

How the values were obtained:
[1] = xn = mol fraction of the nth substance listed; details: 101 kPa, Liquid; for speed of sound: Sing-around technique in a fixed-path interferometer
[2] = refractive index (Na D-line) (dimensionless); xn = mol fraction of the nth substance listed; details: 101 kPa, Liquid

Cc1cc(C)cc(C)c1 [1,3,5-trimethylbenzene] + CC1CCCCC1
Details | mass density, 298.15 K [kg/m3] | mass density, 303.15 K [kg/m3] | mass density, 308.15 K [kg/m3] | refractive index, 298.15 K | refractive index, 303.15 K | refractive index, 308.15 K | speed of sound, 298.15 K [m/s] | viscosity, 298.15 K [mPa·s] | viscosity, 303.15 K [mPa·s] | viscosity, 308.15 K [mPa·s]
[1], x2 = 0 | 861.2 | 857.1 | 853 | – | – | – | 1346 | 0.667 | 0.622 | 0.586
[1], x2 = 0.1007 | 851.6 | 847.5 | 843.3 | – | – | – | 1328 | 0.653 | 0.612 | 0.577
[1], x2 = 0.1993 | 842 | 837.9 | 833.8 | – | – | – | 1312 | 0.638 | 0.6 | 0.569
[1], x2 = 0.3035 | 832 | 827.9 | 823.7 | – | – | – | 1295 | 0.629 | 0.592 | 0.559
[1], x2 = 0.4063 | 822 | 817.9 | 813.7 | – | – | – | 1280 | 0.622 | 0.584 | 0.553
[1], x2 = 0.4974 | 813.1 | 808.9 | 804.8 | – | – | – | 1267 | 0.62 | 0.603 | 0.547
[1], x2 = 0.6085 | 802.2 | 798.1 | 793.9 | – | – | – | 1253 | 0.621 | 0.582 | 0.548
[1], x2 = 0.7027 | 793.1 | 788.9 | 784.7 | – | – | – | 1244 | 0.627 | 0.588 | 0.553
[1], x2 = 0.7973 | 784 | 779.7 | 775.5 | – | – | – | 1235 | 0.638 | 0.598 | 0.566
[1], x2 = 0.902 | 774.1 | 769.8 | 765.6 | – | – | – | 1225 | 0.654 | 0.622 | 0.575
[2], x2 = 0 | – | – | – | 1.496 | 1.4936 | 1.4913 | – | – | – | –
[2], x2 = 0.1007 | – | – | – | 1.489 | 1.4865 | 1.4843 | – | – | – | –
[2], x2 = 0.1993 | – | – | – | 1.4817 | 1.4809 | 1.4771 | – | – | – | –
[2], x2 = 0.3035 | – | – | – | 1.474 | 1.473 | 1.4692 | – | – | – | –
[2], x2 = 0.4063 | – | – | – | 1.4663 | 1.4647 | 1.4614 | – | – | – | –
[2], x2 = 0.4974 | – | – | – | 1.4593 | 1.4565 | 1.4544 | – | – | – | –
[2], x2 = 0.6085 | – | – | – | 1.4508 | 1.4529 | 1.4459 | – | – | – | –
[2], x2 = 0.7027 | – | – | – | 1.4436 | 1.4421 | 1.4386 | – | – | – | –
[2], x2 = 0.7973 | – | – | – | 1.4363 | 1.4347 | 1.4312 | – | – | – | –
[2], x2 = 0.902 | – | – | – | 1.4285 | 1.4265 | 1.4233 | – | – | – | –

Cc1ccc(C)cc1 [1,4-dimethylbenzene] + CC1CCCCC1
x2 = 0
Details | mass density, 298.15 K [kg/m3] | mass density, 303.15 K [kg/m3] | mass density, 308.15 K [kg/m3] | refractive index, 298.15 K | refractive index, 303.15 K | refractive index, 308.15 K | speed of sound, 298.15 K [m/s] | viscosity, 298.15 K [mPa·s] | viscosity, 303.15 K [mPa·s] | viscosity, 308.15 K [mPa·s]
[1] | 856.7 | 852.3 | 848 | – | – | – | 1326 | 0.611 | 0.572 | 0.54
[2] | – | – | – | 1.4926 | 1.4893 | 1.4867 | – | – | – | –

COc1ccccc1 [anisole] + CC1CCCCC1
Details | mass density, 298.15 K [kg/m3] | mass density, 303.15 K [kg/m3] | mass density, 308.15 K [kg/m3] | refractive index, 298.15 K | refractive index, 303.15 K | refractive index, 308.15 K | speed of sound, 298.15 K [m/s] | viscosity, 298.15 K [mPa·s] | viscosity, 303.15 K [mPa·s] | viscosity, 308.15 K [mPa·s]
[1], x2 = 0 | 989.2 | 984.5 | 979.8 | – | – | – | 1410 | 1.008 | 0.929 | 0.861
[1], x2 = 0.1025 | 962.1 | 957.4 | 952.7 | – | – | – | 1391 | 0.924 | 0.905 | 0.808
[1], x2 = 0.2009 | 936.5 | 931.8 | 927.2 | – | – | – | 1372 | 0.854 | 0.792 | 0.737
[1], x2 = 0.3006 | 911.8 | 907.2 | 902.6 | – | – | – | 1352 | 0.793 | 0.734 | 0.693
[1], x2 = 0.406 | 886.7 | 882.2 | 877.6 | – | – | – | 1333 | 0.75 | 0.694 | 0.654
[1], x2 = 0.5043 | 864.4 | 860.1 | 855.4 | – | – | – | 1314 | 0.717 | 0.664 | 0.627
[1], x2 = 0.6058 | 842.2 | 837.8 | 833.3 | – | – | – | 1294 | 0.689 | 0.645 | 0.605
[1], x2 = 0.7026 | 821.9 | 817.3 | 813 | – | – | – | 1275 | 0.675 | 0.634 | 0.593
[1], x2 = 0.8023 | 801.8 | 797.4 | 792.9 | – | – | – | 1256 | 0.667 | 0.621 | 0.584
[1], x2 = 0.9053 | 782.1 | 777.8 | 773.4 | – | – | – | 1236 | 0.666 | 0.622 | 0.583
[2], x2 = 0 | – | – | – | 1.5136 | 1.5112 | 1.5088 | – | – | – | –
[2], x2 = 0.1025 | – | – | – | 1.5023 | 1.5036 | 1.4978 | – | – | – | –
[2], x2 = 0.2009 | – | – | – | 1.4917 | 1.489 | 1.487 | – | – | – | –
[2], x2 = 0.3006 | – | – | – | 1.4813 | 1.4801 | 1.4766 | – | – | – | –
[2], x2 = 0.406 | – | – | – | 1.4706 | 1.4701 | 1.4659 | – | – | – | –
[2], x2 = 0.5043 | – | – | – | 1.4609 | 1.4586 | 1.4563 | – | – | – | –
[2], x2 = 0.6058 | – | – | – | 1.4516 | 1.4497 | 1.4467 | – | – | – | –
[2], x2 = 0.7026 | – | – | – | 1.4431 | 1.4408 | 1.4382 | – | – | – | –
[2], x2 = 0.8023 | – | – | – | 1.4351 | 1.4323 | 1.4301 | – | – | – | –
[2], x2 = 0.9053 | – | – | – | 1.4278 | 1.4242 | 1.4226 | – | – | – | –
